Experimental data taken from patent US8232407B2, “Nitrogenous heterocyclic compounds with insecticidal activity, and the preparation and use thereof” (East China University of Science and Technology, priority 2008, dated 2012).
Like-named read-outs stand apart in the source and are kept apart here.

How the values were obtained:
Type in all cases: in vivo
Aphis craccivoral = test: Insecticidal activities to aphids, immersion method; details: for Aphis craccivoral Mortality (%) 500 ppm: in vivo; for mortality at 500 ppm: Aphis, read-out: Aphis craccivoral Mortality (%) 500 ppm
Outline: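 Immersion assay: compound diluted from 10 g/L DMF stock to 500 ppm in 0.2 mL/L Triton X-100, sprout-feeding wingless adults dipped 5 s. Kept at 23° C, three repeats; 24 h mortality calculated relative to surviving Triton-treated controls.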

[1] = tested on: Pseudaletia separate Walker; test: Insecticidal activities to armyworm, leaf dipping and feeding
Outline: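 Armyworms (10 per tumbler, 3 replicates) ate fresh maize leaves that had been immersed for 3 seconds in compound solutions of 1.57-500 ppm in acetone, or in aqueous acetone for controls. Kills were scored at 24 h, and mortality was calculated relative to survivors in the control group.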

Plutella xylostella = test: Insecticidal activities to diamondback moth, feeding dipped leaves; details: for Plutella xylostella Mortality (%) 500 ppm: in vivo; for mortality at 500 ppm: Plutella xylostella, read-out: Plutella xylostella Mortality (%) 500 ppm
Outline: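 Mortality was scored 24 h after larvae of Plutella xylostella (10 per treatment, 3 repeats) fed on cabbage leaves immersed 3 s in test solution and dried at room temperature. It was computed relative to survivors in a water-treated control.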

Nilaparvata lugens = test: Insecticidal activities to plant hopper, spraying method; details: for Nilaparvata lugens Mortality (%) 500 ppm: in vivo; for mortality at 500 ppm: Nilaparvata lugens, read-out: Nilaparvata lugens Mortality (%) 500 ppm
Outline: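 Spray test: acetone solutions of 500 down to 0.79 ppm, 2 ml per tumbler holding 10 planthoppers introduced 6 h earlier, triplicate, aqueous acetone as control. Mortality at 24 h calculated from survivors relative to control.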

[2] = 500 ppm, leaf dipping and feeding, counted after 24 hours
[3] = 500 ppm, feeding dipped leaves, counted after 24 hours
[4] = 500 ppm, spraying method, counted after 24 hours

Structure (SMILES) | Aphis craccivoral Mortality (%) 500 ppm (Aphis craccivoral) | Pseudaletia separate Walker Mortality (%) 500 ppm ([1]; in vivo) | Plutella xylostella Mortality (%) 500 ppm (Plutella xylostella) | Nilaparvata lugens Mortality (%) 500 ppm (Nilaparvata lugens) | mortality at 500 ppm (Aphis craccivoral; 500 ppm, immersion method) | Pseudaletia separate Walker Mortality (%) 500 ppm [1, 2] | mortality at 500 ppm (Plutella xylostella; [3]) | mortality at 500 ppm (Nilaparvata lugens; [4]) | mortality at 500 ppm (Aphis craccivoral) | mortality at 500 ppm (Plutella xylostella; 24 h) | mortality at 500 ppm (Nilaparvata lugens; 24 h)
O=[N+]([O-])C(=Cc1ccccc1)C1=NCCN1Cc1ccc(Cl)nc1 [Compound 44] | 67% | 97% | 100% | 92% | – | – | – | – | – | – | –
O=[N+]([O-])C(=Cc1ccccc1O)C1=NCCN1Cc1ccc(Cl)nc1 [Compound 45] | 56% | 89% | 23% | 76% | – | – | – | – | – | – | –
O=[N+]([O-])/C(=C/c1ccco1)C1=NCCCN1Cc1ccc(Cl)nc1 [Compound 46, 1-((6-chloropyridin-3-yl)methyl)-2-(2-(furan-2-yl)-1-nitrovinyl)-1,4,5,6-tetrahydropyrimidine] | – | – | – | – | 100% | 100% | 100% | 100% | – | – | –
O=[N+]([O-])C(=Cc1ccoc1)C1=NCCCN1Cc1ccc(Cl)nc1 [Compound 47] | 100% | 100% | 100% | 100% | – | – | – | – | – | – | –
O=[N+]([O-])C(=Cc1ccc([N+](=O)[O-])o1)C1=NCCCN1Cc1ccc(Cl)nc1 [Compound 48] | 100% | 100% | 100% | 100% | – | – | – | – | – | – | –
O=[N+]([O-])C(=Cc1ccc(Cl)o1)C1=NCCCN1Cc1ccc(Cl)nc1 [Compound 49] | 100% | 100% | 100% | 100% | – | – | – | – | – | – | –
O=[N+]([O-])C(=Cc1ccc(Br)o1)C1=NCCCN1Cc1ccc(Cl)nc1 [Compound 50] | 100% | 100% | 100% | 100% | – | – | – | – | – | – | –
O=[N+]([O-])C(=Cc1cc(Cl)co1)C1=NCCCN1Cc1ccc(Cl)nc1 [Compound 51] | 100% | 100% | 100% | 100% | – | – | – | – | – | – | –
O=[N+]([O-])C(=Cc1cc(Br)co1)C1=NCCCN1Cc1ccc(Cl)nc1 [Compound 52] | 100% | 100% | 100% | 100% | – | – | – | – | – | – | –
O=[N+]([O-])C(=Cc1cc(Cl)c(Cl)o1)C1=NCCCN1Cc1ccc(Cl)nc1 [Compound 53] | 100% | 100% | 100% | 100% | – | – | – | – | – | – | –
O=[N+]([O-])C(=Cc1oc(Cl)cc1Cl)C1=NCCCN1Cc1ccc(Cl)nc1 [Compound 54] | 100% | 100% | 100% | 100% | – | – | – | – | – | – | –
O=[N+]([O-])C(=Cc1cc(Br)c(Br)o1)C1=NCCCN1Cc1ccc(Cl)nc1 [Compound 55] | 98% | 100% | 100% | 100% | – | – | – | – | – | – | –
O=[N+]([O-])C(=Cc1oc(Br)cc1Br)C1=NCCCN1Cc1ccc(Cl)nc1 [Compound 56] | 100% | 100% | 100% | 100% | – | – | – | – | – | – | –
Cc1ccc(C=C(C2=NCCCN2Cc2ccc(Cl)nc2)[N+](=O)[O-])o1 [Compound 57] | 100% | 100% | 100% | 78% | – | – | – | – | – | – | –
CCc1ccc(C=C(C2=NCCCN2Cc2ccc(Cl)nc2)[N+](=O)[O-])o1 [Compound 59] | 57% | 86% | 100% | 84% | – | – | – | – | – | – | –
O=[N+]([O-])C(=Cc1ccc(CO)o1)C1=NCCCN1Cc1ccc(Cl)nc1 [Compound 60] | 47% | 84% | 100% | 56% | – | – | – | – | – | – | –
O=[N+]([O-])C(=Cc1cccs1)C1=NCCCN1Cc1ccc(Cl)nc1 [Compound 61] | 100% | 100% | 100% | 100% | – | – | – | – | – | – | –

Structure (SMILES) | Aphis craccivoral Mortality (%) 500 ppm (Aphis craccivoral) | Pseudaletia separate Walker Mortality (%) 500 ppm ([1]; in vivo) | Plutella xylostella Mortality (%) 500 ppm (Plutella xylostella) | Nilaparvata lugens Mortality (%) 500 ppm (Nilaparvata lugens) | mortality at 500 ppm (Aphis craccivoral; 500 ppm, immersion method) | Pseudaletia separate Walker Mortality (%) 500 ppm [1, 2] | mortality at 500 ppm (Plutella xylostella; [3]) | mortality at 500 ppm (Nilaparvata lugens; [4]) | mortality at 500 ppm (Aphis craccivoral) | mortality at 500 ppm (Plutella xylostella; 24 h) | mortality at 500 ppm (Nilaparvata lugens; 24 h)
O=[N+]([O-])C(=Cc1ccsc1)C1=NCCCN1Cc1ccc(Cl)nc1 [Compound 62] | 90% | 100% | 100% | 100% | – | – | – | – | – | – | –
O=[N+]([O-])C(=Cc1ccc([N+](=O)[O-])s1)C1=NCCCN1Cc1ccc(Cl)nc1 [Compound 63] | 98% | 100% | 100% | 100% | – | – | – | – | – | – | –
O=[N+]([O-])C(=Cc1ccc(Cl)s1)C1=NCCCN1Cc1ccc(Cl)nc1 [Compound 64] | 100% | 100% | 100% | 100% | – | – | – | – | – | – | –
O=[N+]([O-])C(=Cc1ccc(Br)s1)C1=NCCCN1Cc1ccc(Cl)nc1 [Compound 65] | 73% | 92% | 100% | 100% | – | – | – | – | – | – | –
O=[N+]([O-])C(=Cc1cc(Cl)cs1)C1=NCCCN1Cc1ccc(Cl)nc1 [Compound 66] | 56% | 87% | 100% | 87% | – | – | – | – | – | – | –
O=[N+]([O-])C(=Cc1cc(Br)cs1)C1=NCCCN1Cc1ccc(Cl)nc1 [Compound 67] | 65% | 90% | 100% | 83% | – | – | – | – | – | – | –
O=[N+]([O-])/C(=C/c1ccco1)C1=NCCN1Cc1cnc(Cl)s1 [Compound 68, 1-((2-chlorothiozol-5-yl)methyl)-2-(2-(furan-2-yl)-1-nitrovinyl)-4,5-dihydro-1H-imidazole] | – | – | – | – | 100% | 100% | 100% | 100% | – | – | –
O=[N+]([O-])C(=Cc1ccoc1)C1=NCCN1Cc1cnc(Cl)s1 [Compound 69] | 100% | 100% | 100% | 100% | – | – | – | – | – | – | –
O=[N+]([O-])/C(=C/c1ccc([N+](=O)[O-])o1)C1=NCCN1Cc1cnc(Cl)s1 [Compound 70] | – | – | – | – | – | 98% | – | – | 100% | 100% | 100%
O=[N+]([O-])C(=Cc1ccc(Cl)o1)C1=NCCN1Cc1cnc(Cl)s1 [Compound 71] | 100% | 100% | 100% | 100% | – | – | – | – | – | – | –
O=[N+]([O-])C(=Cc1ccc(Br)o1)C1=NCCN1Cc1cnc(Cl)s1 [Compound 72] | 100% | 100% | 100% | 100% | – | – | – | – | – | – | –
O=[N+]([O-])C(=Cc1cc(Cl)co1)C1=NCCN1Cc1cnc(Cl)s1 [Compound 73] | 100% | 100% | 100% | 100% | – | – | – | – | – | – | –
O=[N+]([O-])C(=Cc1cc(Br)co1)C1=NCCN1Cc1cnc(Cl)s1 [Compound 74] | 100% | 100% | 100% | 100% | – | – | – | – | – | – | –
O=[N+]([O-])C(=Cc1cc(Cl)c(Cl)o1)C1=NCCN1Cc1cnc(Cl)s1 [Compound 75] | 100% | 100% | 100% | 100% | – | – | – | – | – | – | –
O=[N+]([O-])C(=Cc1oc(Cl)cc1Cl)C1=NCCN1Cc1cnc(Cl)s1 [Compound 76] | 100% | 100% | 100% | 100% | – | – | – | – | – | – | –
O=[N+]([O-])C(=Cc1cc(Br)c(Br)o1)C1=NCCN1Cc1cnc(Cl)s1 [Compound 77] | 100% | 100% | 100% | 100% | – | – | – | – | – | – | –
